Results from patent US12077503B2, “Substituted cyclic amides and their use as herbicides” (FMC CORPORATION, priority 2015, dated 2024).

How the values were obtained:
Type in all cases: in vivo
[1] = system: barnyardgrass (Echinochloa crus-galli); test: Test G Pre-Emergence Protocol; conditions: Echinochloa crus-galli, pre-emergence, 312 h, evaluated after 13 days; for pest or weed control at 15.625 g/ha: 15.625 g ai/ha, read-out: Barnyard grass damage rating (100=total damage to plant; 0=no damage to plant); for pest or weed control at 62.5 g/ha: 62.5 g ai/ha, 100=total damage to plant, 0=no damage to plant, read-out: plant damage rating, Barnyardgrass; for pest or weed control at 250 g/ha: 250 g ai/ha, read-out: Barnyardgrass damage rating (100=total damage to plant; 0=no damage to plant)
Summary of the method: (§1)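 Test compound in 0.5% Tween 20 acetone/water (50:50) was applied at three rates (15.625, 62.5, 250 g/ha) to soil sown one day earlier. After 13 days plants were scored for injury, where 0 means unaffected and 100 means completely damaged.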

corn (Zea mays) [2] = test: Test G Pre-Emergence Protocol; conditions: Zea mays, pre-emergence, 312 h, evaluated after 13 days; for plant injury at 15.625 g/ha: 15.625 g ai/ha; for plant injury at 15.625 g/ha / plant injury at 250 g/ha: read-out: Corn damage rating (100=total damage to plant; 0=no damage to plant); for plant injury at 62.5 g/ha: 62.5 g ai/ha, 100=total damage to plant, 0=no damage to plant, read-out: plant damage rating, Corn; for plant injury at 250 g/ha: 250 g ai/ha
Summary of the method: as §1

[3] = system: giant foxtail (Setaria faberi); test: Test G Pre-Emergence Protocol; conditions: Setaria faberi, pre-emergence, 312 h, evaluated after 13 days; for pest or weed control at 15.625 g/ha: 15.625 g ai/ha; for pest or weed control at 15.625 g/ha / pest or weed control at 250 g/ha: read-out: Foxtail, Giant damage rating (100=total damage to plant; 0=no damage to plant); for pest or weed control at 62.5 g/ha: 62.5 g ai/ha, 100=total damage to plant, 0=no damage to plant, read-out: plant damage rating, Foxtail, Giant; for pest or weed control at 250 g/ha: 250 g ai/ha
Summary of the method: as §1

[4] = system: ivy-leaved morning glory (Ipomoea hederacea); test: Test G Pre-Emergence Protocol; conditions: Ipomoea, pre-emergence, 312 h, evaluated after 13 days; for pest or weed control at 15.625 g/ha: 15.625 g ai/ha, read-out: Morning-glory, Ivy-leaved damage rating (100=total damage to plant; 0=no damage to plant); for pest or weed control at 62.5 g/ha: 62.5 g ai/ha, 100=total damage to plant, 0=no damage to plant, read-out: plant damage rating, Morningglory, Ivy-leaved; for pest or weed control at 250 g/ha: 250 g ai/ha, read-out: Morningglory, Ivy-leaved damage rating (100=total damage to plant; 0=no damage to plant)
Summary of the method: as §1

[5] = system: redroot pigweed (Amaranthus retroflexus); test: Test G Pre-Emergence Protocol; conditions: Amaranthus retroflexus, pre-emergence, 312 h, evaluated after 13 days; for pest or weed control at 15.625 g/ha: 15.625 g ai/ha; for pest or weed control at 15.625 g/ha / pest or weed control at 250 g/ha: read-out: Pigweed, Redroot damage rating (100=total damage to plant; 0=no damage to plant); for pest or weed control at 62.5 g/ha: 62.5 g ai/ha, 100=total damage to plant, 0=no damage to plant, read-out: plant damage rating, Pigweed, Redroot; for pest or weed control at 250 g/ha: 250 g ai/ha
Summary of the method: as §1

[6] = system: velvetleaf (Abutilon theophrasti); test: Test G Pre-Emergence Protocol; conditions: Abutilon theophrasti, pre-emergence, 312 h, evaluated after 13 days; for pest or weed control at 15.625 g/ha: 15.625 g ai/ha; for pest or weed control at 15.625 g/ha / pest or weed control at 250 g/ha: read-out: Velvetleaf damage rating (100=total damage to plant; 0=no damage to plant); for pest or weed control at 62.5 g/ha: 62.5 g ai/ha, 100=total damage to plant, 0=no damage to plant, read-out: plant damage rating, Velvetleaf; for pest or weed control at 250 g/ha: 250 g ai/ha
Summary of the method: as §1

[7] = system: barnyardgrass (Echinochloa crus-galli); test: Test G Post-Emergence Protocol; conditions: Echinochloa crus-galli, post-emergence, 312 h; for pest or weed control at 15.625 g/ha: 15.625 g ai/ha, evaluated after 13 days (100=total damage to plant; 0=no damage to plant), read-out: Barnyardgrass damage rating; for pest or weed control at 62.5 g/ha: 62.5 g ai/ha, read-out: Barnyardgrass damage rating (100=total damage to plant; 0=no damage to plant); for pest or weed control at 62.5 g/ha / pest or weed control at 250 g/ha: evaluated after 13 days; for pest or weed control at 250 g/ha: 250 g ai/ha, read-out: damage to plant, Barnyardgrass (100=total damage to plant; 0=no damage to plant)
Summary of the method: (§2)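 Foliar application was made 8 days after sowing, using an aqueous spray of the active in acetone/water (50:50) with 0.5% Tween 20, at doses of 15.625, 62.5 or 250 g/ha. Injury was assessed 13 days later, where 100 meant the plant was fully damaged.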

corn (Zea mays) [8] = test: Test G Post-Emergence Protocol; conditions: Zea mays, post-emergence, 312 h; for plant injury at 15.625 g/ha: 15.625 g ai/ha, evaluated after 13 days (100=total damage to plant; 0=no damage to plant), read-out: Corn damage rating; for plant injury at 62.5 g/ha: 62.5 g ai/ha, read-out: Corn damage rating (100=total damage to plant; 0=no damage to plant); for plant injury at 62.5 g/ha / plant injury at 250 g/ha: evaluated after 13 days; for plant injury at 250 g/ha: 250 g ai/ha, read-out: damage to plant, Corn (100=total damage to plant; 0=no damage to plant)
Summary of the method: as §2

[9] = system: giant foxtail (Setaria faberi); test: Test G Post-Emergence Protocol; conditions: Setaria faberi, post-emergence, 312 h; for pest or weed control at 15.625 g/ha: 15.625 g ai/ha, evaluated after 13 days (100=total damage to plant; 0=no damage to plant), read-out: Foxtail, Giant damage rating; for pest or weed control at 62.5 g/ha: 62.5 g ai/ha, read-out: Foxtail, Giant damage rating (100=total damage to plant; 0=no damage to plant); for pest or weed control at 62.5 g/ha / pest or weed control at 250 g/ha: evaluated after 13 days; for pest or weed control at 250 g/ha: 250 g ai/ha, read-out: damage to plant, Foxtail, Giant (100=total damage to plant; 0=no damage to plant)
Summary of the method: as §2

[10] = system: ivy-leaved morning glory (Ipomoea hederacea); test: Test G Post-Emergence Protocol; conditions: Ipomoea, post-emergence, 312 h; for pest or weed control at 15.625 g/ha: 15.625 g ai/ha, evaluated after 13 days (100=total damage to plant; 0=no damage to plant), read-out: Morningglory, Ivy-leaved damage rating; for pest or weed control at 62.5 g/ha: 62.5 g ai/ha, read-out: Morningglory, Ivy-leaved damage rating (100=total damage to plant; 0=no damage to plant); for pest or weed control at 62.5 g/ha / pest or weed control at 250 g/ha: evaluated after 13 days; for pest or weed control at 250 g/ha: 250 g ai/ha, read-out: damage to plant, Morningglory, Ivy-leaved (100=total damage to plant; 0=no damage to plant)
Summary of the method: as §2

[11] = system: redroot pigweed (Amaranthus retroflexus); test: Test G Post-Emergence Protocol; conditions: Amaranthus retroflexus, post-emergence, 312 h; for pest or weed control at 15.625 g/ha: 15.625 g ai/ha, evaluated after 13 days (100=total damage to plant; 0=no damage to plant), read-out: Pigweed, Redroot damage rating; for pest or weed control at 62.5 g/ha: 62.5 g ai/ha, read-out: Pigweed, Redroot damage rating (100=total damage to plant; 0=no damage to plant); for pest or weed control at 62.5 g/ha / pest or weed control at 250 g/ha: evaluated after 13 days; for pest or weed control at 250 g/ha: 250 g ai/ha, read-out: damage to plant, Pigweed, Redroot (100=total damage to plant; 0=no damage to plant)
Summary of the method: as §2

[12] = system: velvetleaf (Abutilon theophrasti); test: Test G Post-Emergence Protocol; conditions: Abutilon theophrasti, post-emergence, 312 h; for pest or weed control at 15.625 g/ha: 15.625 g ai/ha, evaluated after 13 days (100=total damage to plant; 0=no damage to plant), read-out: Velvetleaf damage rating; for pest or weed control at 62.5 g/ha: 62.5 g ai/ha, read-out: Velvetleaf damage rating (100=total damage to plant; 0=no damage to plant); for pest or weed control at 62.5 g/ha / pest or weed control at 250 g/ha: evaluated after 13 days; for pest or weed control at 250 g/ha: 250 g ai/ha, read-out: damage to plant, Velvetleaf (100=total damage to plant; 0=no damage to plant)
Summary of the method: as §2

Row | Structure (SMILES) | pest or weed control at 15.625 g/ha [1] | pest or weed control at 62.5 g/ha [1] | pest or weed control at 250 g/ha [1] | plant injury at 15.625 g/ha (corn (Zea mays) [2]) | plant injury at 62.5 g/ha (corn (Zea mays) [2]) | plant injury at 250 g/ha (corn (Zea mays) [2]) | pest or weed control at 15.625 g/ha [3] | pest or weed control at 62.5 g/ha [3] | pest or weed control at 250 g/ha [3] | pest or weed control at 15.625 g/ha [4] | pest or weed control at 62.5 g/ha [4] | pest or weed control at 250 g/ha [4] | pest or weed control at 15.625 g/ha [5] | pest or weed control at 62.5 g/ha [5] | pest or weed control at 250 g/ha [5] | pest or weed control at 15.625 g/ha [6] | pest or weed control at 62.5 g/ha [6] | pest or weed control at 250 g/ha [6] | pest or weed control at 15.625 g/ha [7] | pest or weed control at 62.5 g/ha [7] | further results
1 | CN1C[C@@H](c2cc(Cl)nc(Cl)c2)[C@H](C(=O)Nc2cccc(F)c2F)C1=O (racemic) [Compound 1494] | 80% | 80% | 90% | 0% | 20% | 60% | 70% | 80% | 80% | 0% | 0% | 70% | 0% | 0% | 30% | 0% | 0% | 0% | 30% | 60% | pest or weed control at 250 g/ha [7]: 50%; plant injury at 15.625 g/ha (corn (Zea mays) [8]): 10%; plant injury at 62.5 g/ha (corn (Zea mays) [8]): 30%; plant injury at 250 g/ha (corn (Zea mays) [8]): 80%; pest or weed control at 15.625 g/ha [9]: 60%; pest or weed control at 62.5 g/ha [9]: 60%; pest or weed control at 250 g/ha [9]: 60%; pest or weed control at 15.625 g/ha [10]: 10%; pest or weed control at 62.5 g/ha [10]: 40%; pest or weed control at 250 g/ha [10]: 50%; pest or weed control at 15.625 g/ha [11]: 0%; pest or weed control at 62.5 g/ha [11]: 0%; pest or weed control at 250 g/ha [11]: 0%; pest or weed control at 15.625 g/ha [12]: 0%; pest or weed control at 62.5 g/ha [12]: 0%; pest or weed control at 250 g/ha [12]: 30%
2 | CN1C[C@H](c2ccc3c(c2)CCCC3)[C@@H](C(=O)Nc2cccc(F)c2F)C1=O (racemic) [Compound 1496] | 0% | 40% | 80% | 0% | 0% | 20% | 0% | 50% | 80% | 0% | 0% | 0% | 0% | 0% | 0% | 0% | 0% | 0% | 20% | 50% | pest or weed control at 250 g/ha [7]: 60%; plant injury at 15.625 g/ha (corn (Zea mays) [8]): 10%; plant injury at 62.5 g/ha (corn (Zea mays) [8]): 20%; plant injury at 250 g/ha (corn (Zea mays) [8]): 50%; pest or weed control at 15.625 g/ha [9]: 20%; pest or weed control at 62.5 g/ha [9]: 60%; pest or weed control at 250 g/ha [9]: 60%; pest or weed control at 15.625 g/ha [10]: 0%; pest or weed control at 62.5 g/ha [10]: 0%; pest or weed control at 250 g/ha [10]: 0%; pest or weed control at 15.625 g/ha [11]: 0%; pest or weed control at 62.5 g/ha [11]: 0%; pest or weed control at 250 g/ha [11]: 0%; pest or weed control at 15.625 g/ha [12]: 0%; pest or weed control at 62.5 g/ha [12]: 0%; pest or weed control at 250 g/ha [12]: 20%
3 | CN1C[C@H](c2ccc(C(F)(F)F)cc2)[C@@H](C(=O)Nc2cccc(C(F)F)c2)C1=O (racemic) [Compound 1498] | 0% | 0% | 20% | 0% | 0% | 0% | 0% | 0% | 10% | 0% | 0% | 0% | 0% | 0% | 0% | 0% | 0% | 0% | 0% | 0% | pest or weed control at 250 g/ha [7]: 30%; plant injury at 15.625 g/ha (corn (Zea mays) [8]): 0%; plant injury at 62.5 g/ha (corn (Zea mays) [8]): 0%; plant injury at 250 g/ha (corn (Zea mays) [8]): 0%; pest or weed control at 15.625 g/ha [9]: 0%; pest or weed control at 62.5 g/ha [9]: 0%; pest or weed control at 250 g/ha [9]: 30%; pest or weed control at 15.625 g/ha [10]: 0%; pest or weed control at 62.5 g/ha [10]: 0%; pest or weed control at 250 g/ha [10]: 0%; pest or weed control at 15.625 g/ha [11]: 0%; pest or weed control at 62.5 g/ha [11]: 0%; pest or weed control at 250 g/ha [11]: 0%; pest or weed control at 15.625 g/ha [12]: 0%; pest or weed control at 62.5 g/ha [12]: 0%; pest or weed control at 250 g/ha [12]: 0%
